Assay results: patent US8937072B2, “Substituted cyanoaniline compounds, preparation and use thereof” (Sinochem Corporation, priority 2011, dated 2015)
Read-outs that look alike come from different tables or passages of the source.

Legend:
[1] = tested on: cucumber downy mildew; test: Protectant activity in vivo (whole plant) against cucumber downy mildew; details: for pest or weed control at 25 µg/mL / pest or weed control at 50 µg/mL / pest or weed control at 100 µg/mL / pest or weed control at 12.5 µg/mL / pest or weed control at 400 µg/mL: Cucumis sativus, 168 h; for pest or weed control at 12.5 µg/mL: 12.5 mg/L
Experimental: (§1) The method is as followed: The whole plant is used in this test. The compound is dissolved in a proper solvent to get mother solution. The proper solvent is selected from acetone, methanol, DMF and so on according to their dissolving capability to the sample. The volume rate of solvent and testing solution (v/v) is equal to or less than 5%. The mother solution is diluted with water containing 0.1% tween-80 to get the testing solution whose concentration is designed. The testing solution is sprayed to the host plant by a special plant sprayer. The plant is inoculated with fungus after 24 hours. According to the infecting characteristic of fungus, the plant is stored in a humidity chamber and then transferred into greenhouse after infection is finished. And the other plants are placed in greenhouse directly. The activity of compound is obtained by eyeballing after 7 days in common.

[2] = tested on: corn rust; test: Protectant activity in vivo (whole plant) against corn rust; details: for pest or weed control at 6.25 µg/mL / pest or weed control at 25 µg/mL / pest or weed control at 100 µg/mL / pest or weed control at 400 µg/mL: Zea mays, 168 h
Experimental: as §1

[3] = tested on: rice blast; test: microbe, parasite or virus in culture; type: cell-based
[4] = tested on: cucumber gray mold; test: Activity in vitro (96-well, High Through Put): inhibition rate against cucumber gray mold; type: cell-based; details: for inhibition at 0.3 µg/mL: 0.3 mg/L; for inhibition at 0.9 µg/mL: 0.9 mg/L; for inhibition at 8.3 µg/mL: 8.3 mg/L; for inhibition at 25 µg/mL: dose 25 mg/L
Experimental: The method is as followed: High Through Put is used in the test. The compound is dissolved in a proper solvent to become a testing solution whose concentration is designed. The solvent is selected from acetone, methanol, DMF and so on according to their dissolving capability to the sample. In a no animalcule condition, the testing solution and pathogens suspension are added into the cells of 96 cells culture board, which then should be placed in the constant temperature box. 24 hours later, pathogen germination or growth can be investigated by eyeballing, and the activity in vitro of the compound is evaluated based on germination or growth of control treatment.

[5] = read-out: the inhibition rate against cucumber gray mold (%)
[6] = 2.8 mg/L, read-out: the inhibition rate against cucumber gray mold (%)
[7] = 25 mg/L, read-out: the protectant activity (%) against cucumber downy mildew
[8] = 50 mg/L, read-out: the protectant activity (%) against cucumber downy mildew
[9] = 100 mg/L, read-out: the protectant activity (%) against cucumber downy mildew
[10] = dose 50 mg/L, read-out: protectant activity against cucumber downy mildew in vivo
[11] = 400 mg/L, read-out: the protectant activity (%) against corn rust
[12] = dose 400 mg/L, read-out: protectant activity against corn rust in vivo

| SMILES | inhibition at 0.3 µg/mL [4] | inhibition at 0.9 µg/mL [4, 5] | inhibition at 2.8 µg/mL [4, 6] | inhibition at 8.3 µg/mL [4, 5] | pest or weed control at 25 µg/mL [1, 7] | pest or weed control at 50 µg/mL [1, 8] | pest or weed control at 100 µg/mL [1, 9] | pest or weed control at 12.5 µg/mL [1] | pest or weed control at 6.25 µg/mL ([2]; 6.25 mg/L) | pest or weed control at 25 µg/mL ([2]; 25 mg/L) | pest or weed control at 100 µg/mL ([2]; 100 mg/L) | pest or weed control at 400 µg/mL [2, 11] | pest or weed control at 400 µg/mL [2, 12] | pest or weed control at 400 µg/mL ([1]; dose 400 mg/L) | inhibition at 25 µg/mL ([4]; in vitro) | other results |
| --- | --- | --- | --- | --- | --- | --- | --- | --- | --- | --- | --- | --- | --- | --- | --- | --- |
| N#Cc1c(Cl)c(Cl)c(C#N)c(Nc2c(Cl)cc([N+](=O)[O-])cc2Cl)c1Cl [Compound C-40] | – | – | – | – | – | – | – | – | – | – | – | – | – | – | – | protectant activity against cucumber downy mildew in vivo ([1]; dose 25 mg/L): 100%; protectant activity against cucumber downy mildew in vivo ([1]; dose 50 mg/L): 100%; protectant activity against cucumber downy mildew in vivo ([1]; dose 100 mg/L): 100%; protectant activity against cucumber downy mildew in vivo ([1]; dose 400 mg/L): 100%; the protectant activity (%) against corn rust ([2]; 6.25 mg/L): 30%; the protectant activity (%) against corn rust ([2]; 25 mg/L): 80%; the protectant activity (%) against corn rust ([2]; 100 mg/L): 100%; the protectant activity (%) against corn rust ([2]; 400 mg/L): 100%; protectant activity against corn rust in vivo ([2]; dose 100 mg/L): 100% |
| COc1ccc(Nc2c(F)c(C#N)c(F)c(F)c2C#N)cc1 [Compound C-68] | – | – | – | – | – | – | – | – | – | – | – | – | – | – | – | inhibition rate against rice blast ([3]; in vitro, dose 8.3 mg/L): 80% |
| N#Cc1c(F)c(F)c(C#N)c(Nc2ccc(Cl)cc2Cl)c1F [Compound C-71] | – | – | – | – | – | – | – | – | – | – | – | – | – | – | – | inhibition rate against cucumber gray mold ([4]; in vitro, dose 0.9 mg/L): 80% |
| Cc1ccc(Nc2c(F)c(F)c(C#N)c(F)c2C#N)cc1 [KC9] | 0% | 0% | 0% | 80% | 20% | 30% | 65% | – | – | – | – | – | – | – | – | inhibition at 2.8 µg/mL ([4]; in vitro, dose 2.8 mg/L, read-out: inhibition rate against cucumber gray mold): 0%; pest or weed control at 25 µg/mL ([1]; dose 25 mg/L, read-out: protectant activity against cucumber downy mildew in vivo): 20%; pest or weed control at 50 µg/mL [1, 10]: 30% |
| N#Cc1c(F)c(F)c(C#N)c(Nc2ccc(O)cc2)c1F [KC16] | – | – | – | – | 0% | 0% | 20% | 0% | 0% | 0% | 0% | 0% | 0% | – | – | pest or weed control at 50 µg/mL [1, 10]: 0%; pest or weed control at 100 µg/mL ([1]; dose 100 mg/L, read-out: protectant activity against cucumber downy mildew in vivo): 20% |
| N#Cc1c(F)c(Cl)c(Nc2ccccc2)c(C#N)c1F [KC17] | – | – | – | – | 0% | 0% | 0% | 0% | 0% | 0% | 0% | 0% | 0% | 0% | – | – |
| Cc1ccc(Nc2c(Cl)c(F)c(C#N)c(F)c2C#N)cc1 [KC19] | 0% | 0% | 0% | 0% | – | – | – | – | 0% | 0% | 0% | 0% | 0% | – | 0% | – |
| CN(C)c1ccc(Nc2c(F)c(F)c(C#N)c(F)c2C#N)cc1 [KC24] | 0% | 0% | 0% | 0% | 0% | 0% | 0% | 0% | 0% | 0% | 0% | 0% | 0% | 0% | 0% | – |
| COc1ccc(Nc2c(F)c(F)c(C#N)c(C#N)c2F)c(OC)c1 [KC27] | 0% | 0% | 0% | 0% | 0% | 0% | 0% | 0% | 0% | 0% | 0% | 0% | 0% | 0% | 0% | – |
| O=[N+]([O-])c1cc(C(F)(F)F)c(Cl)c([N+](=O)[O-])c1Nc1ncc(C(F)(F)F)cc1Cl [fluazinam] | – | – | – | – | – | – | – | – | – | – | – | – | – | – | – | inhibition at 0.03 µg/mL ([3]; Pyricularia oryzae, read-out: the inhibition rate against rice blast (%) 0.03 mg/L): 50%; inhibition at 0.1 µg/mL ([3]; Pyricularia oryzae, read-out: the inhibition rate against rice blast (%) 0.1 mg/L): 80%; inhibition at 0.3 µg/mL ([3]; Pyricularia oryzae, read-out: the inhibition rate against rice blast (%) 0.3 mg/L): 100% |
